Test results as given in patent US4567270A, “Hexahydroindolizinones useful for treating cardiac arrhythmia, thrombotic disorders in mammals” (G. D. Searle & Co., priority 1984, dated 1986).
Structures can show the parent of a compound that is named as a salt. Where two headings read alike, the source gives them in different places.

Legend:
[1] = system: ventricular arrhythmia induced by coronary artery ligation; experiment: Inhibition of ventricular arrhythmia induced by coronary ligation (two-stage ligation of left coronary artery); assay type: in vivo, dog; conditions: for minimal effective dose: Canis lupus familiaris, iv, read-out: Minimum Effective Dose
Description: Arrhythmias induced in this manner are considered similar in nature to those resulting from myocardial infarction in humans. […] The antiarrhythmic and antiaggregatory activities of the compounds of this invention illustrated in the examples were tested by the following methods.
Ventricular arrhythmia was induced by a two-stage ligation of the anterior descending branch of the left coronary artery in each of two or more dogs. Compounds were administered intraveneously using an initial 5 mg/kg body weight dose, with additional doses injected at intervals to a maximum of 20 mg/kg. A compound was rated active if it produced at least a 25% reduction in ectopic beats for a period of at least ten minutes in half or more of the dogs. The average minimum effective dose for each compound was calculated.
Compounds which produced 75-100% reduction in the ventricular arrhythmia at the initial 5 mg/kg dose were further tested using 1 mg/kg doses injected as before at five minute intervals. As before, a compound was rated active if it produced at least a 25% reduction in ectopic beats for a period of at least ten minutes in half or more of the dogs. The average minimum effective dose for each compound was calculated.

[2] = system: ADP-induced aggregation of blood platelets; experiment: Inhibition of ADP-induced platelet aggregation (optical platelet aggregometry in platelet-rich plasma); assay type: cell-based; conditions: rat platelet-rich plasma; one minute incubation, ADP usually 1-3 mcM
cardiac arrhythmia = conditions: cited from earlier work
[3] = cited from earlier work; for toxic / side effects: Goodman and Gilman
[4] = system: ventricular arrhythmia induced by coronary artery ligation; conditions: dog; cited from earlier work
[5] = dog, i.v., coronary ligation, average minimum dose giving at least 25% reduction in ectopic beats for at least ten minutes in half or more of the dogs

CC(C)N(CCC1(c2ccccc2Cl)CC2CCCCN2C1=O)C(C)C (racemic) [Example 6, 2-[2-[bis(1-methylethyl)amino]ethyl]-2-(2-chlorophenyl)hexahydro-3(2H)-indolizinone, Racemate A]
minimal effective dose [1, 5]: 3 mg/kg
IC50 [2]: 88 µM

CC(C)N(CCC1(c2ccccc2Cl)CC2CCCCN2C1=O)C(C)C (racemic) [Example 7, 2-[2-[bis(1-methylethyl)-amino]ethyl]-2-(2-chlorophenyl)hexahydro-3(2H)-indolizinone, Racemate B]
Minimum Effective Dose ([1]; dog, i.v., coronary ligation, average minimum dose giving at least 25% reduction in ectopic beats for at least ten minutes in half or more of the dogs, listed as Ex. 7): 5.0 mpk

CC(C)N(CCC(C(N)=O)(c1ccccc1)c1ccccn1)C(C)C (stereo not drawn) [Disopyramide]
Human dose (i.v.) (cardiac arrhythmia; human, i.v., comment in Table 1): ca. 2 mpk
activity in man (cardiac arrhythmia): active in man
minimal effective dose [1]: 9.2 mg/kg
toxic / side effects [3]: anticholinergic effects
effective refractory period of the atrium ([3]; at therapeutic levels): lengthens the effective refractory period of the atrium
refractory period of the A-V node ([3]; at therapeutic levels): minimal effect on the refractory period of the A-V node
sinus node recovery time ([3]; at therapeutic levels): shortens the sinus node recovery time
activity of known antiarrhythmics under coronary ligation conditions [4]: active under these conditions

CC(C)N(CCC1(c2ccccc2)CC2CCCCN2C1=O)C(C)C (stereo not drawn) [Example 3, 2-[2-[bis(1-methylethyl)amino]ethyl]-hexahydro-2-phenyl-3(2H)-indolizinone]
minimal effective dose [1, 5]: 5 mg/kg

CC(C)N(CCC1(c2ccc(-c3ccccc3)cc2)CC2CCCCN2C1=O)C(C)C (stereo not drawn) [Example 10, 2-[2-[bis(1-methylethyl)amino]ethyl]-2-(4-phenylphenyl)hexahydro-3(2H)-indolizinone]
minimal effective dose [1, 5]: 3 mg/kg
IC50 [2]: 34 µM

CC(C)N(CCC1(c2ccccc2)CC2CCCCN2C1=O)C(C)C (stereo not drawn) [Example 11, 2-[2-[bis(1-methylethyl)amino]ethyl]hexahydro-2-phenyl-3(2H)-indolizinone hydrochloride hydrate]
IC50 [2]: 81 µM

CCN(CC)CCNC(=O)c1ccc(N)cc1 [Procainamide]
activity in man (cardiac arrhythmia): active in man
activity of known antiarrhythmics under coronary ligation conditions [4]: active under these conditions

CC(C)NCC(O)COc1cccc2ccccc12 (stereo not drawn) [Propranolol]
toxic / side effects [3]: may induce significant hypotension, left ventricular failure, or even cardiovascular collapse

C=C[C@H]1C[N@@]2CC[C@H]1C[C@@H]2[C@@H](O)c1ccnc2ccc(OC)cc12 [Quinidine]
activity in man (cardiac arrhythmia): active in man
toxic / side effects [3]: exhibits several toxic reactions, such as cinchonism
activity of known antiarrhythmics under coronary ligation conditions [4]: active under these conditions
